Measured values published in patent US12077537B2 (Gilead Sciences, Inc., priority 2020, dated 2024).

system: HIV-IIIb; test: Antiviral assay in MT4 cells; assay type: cell-based; conditions: Human immunodeficiency virus 1, MT4, 120 h; MT-4 cells mixed with HIV-IIIb at m.o.i. 0.003; 5 days at 37° C.; CellTiter-Glo luminescence; 50% decrease in signal, a measure of HIV-1 replication
In short: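 Compound, tested at ten 3-fold dilutions in quadruplicate in 10% FBS medium, received MT-4 cells pre-mixed 1 hour with HIV-IIIb (m.o.i. 0.003). Protection was read as luminescent cell viability (CellTiter-Glo) after 5 days' culture at 37° C.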

EC50	Structure (SMILES)
22.5 nM	CC1(O)CN(c2nc3nc([C@H](Cc4cc(F)cc(F)c4)NC(=O)Cn4nc(C(F)(F)F)c5c4C(F)(F)[C@@H]4C[C@H]54)c(-c4ccc5c(c4)C(=O)NC54CC4)cc3s2)C1 [Compound 43, 2-((3bS,4aR)-5,5-difluoro-3-(trifluoromethyl)-3b,4,4a,5-tetrahydro-1H-cyclopropa[3,4]cyclopenta[1,2-c]pyrazol-1-yl)-N—((S)-2-(3,5-difluorophenyl)-1-(2-(3-hydroxy-3-methylazetidin-1-yl)-6-(3′-oxospiro[cyclopropane-1,1′-isoindolin]-5′-yl)thiazolo[4,5-b]pyridin-5-yl)ethyl)acetamide]
89.1 nM	O=C(Cn1nc(C(F)(F)F)c2c1C(F)(F)[C@@H]1C[C@H]21)N[C@@H](Cc1cc(F)cc(F)c1)c1nc2nc(N3CCN(c4nc5ccccc5[nH]4)CC3)sc2cc1-c1ccc2c(c1)C(=O)NC21CC1 [Compound 44, N—((S)-1-(2-(4-(1H-benzo[d]imidazol-2-yl)piperazin-1-yl)-6-(3′ oxospiro[cyclopropane-1,1′-isoindolin]-5′-yl)thiazolo[4,5-b]pyridin-5-yl)-2-(3,5-difluorophenyl)ethyl)-2-((3bS,4aR)-5,5-difluoro-3-(trifluoromethyl)-3b,4,4a,5-tetrahydro-1H-cyclopropa[3,4]cyclopenta[1,2-c]pyrazol-1-yl)acetamide]
144 nM	NC(=O)c1cc(-c2cc3sc(N4CCN(c5nc6ccccc6[nH]5)CC4)nc3nc2[C@H](Cc2cc(F)cc(F)c2)NC(=O)Cn2nc(C(F)(F)F)c3c2C(F)(F)[C@@H]2C[C@H]32)ccc1F [Compound 45, 5-(2-(4-(1H-benzo[d]imidazol-2-yl)piperazin-1-yl)-5-((S)-1-(2-((3bS,4aR)-5,5-difluoro-3-(trifluoromethyl)-3b,4,4a,5-tetrahydro-1H-cyclopropa[3,4]cyclopenta[1,2-c]pyrazol-1-yl)acetamido)-2-(3,5-difluorophenyl)ethyl)thiazolo[4,5-b]pyridin-6-yl)-2-fluorobenzamide]
85.2 nM	NC(=O)c1cc(-c2cc3sc(N4CCN(c5nc6ccccc6[nH]5)CC4)nc3nc2[C@H](Cc2cc(F)cc(F)c2)NC(=O)Cn2nc(C(F)F)c3c2C2CC2CC3)ccc1F (stereo partly drawn) [Compound 46, 5-(2-(4-(1H-benzo[d]imidazol-2-yl)piperazin-1-yl)-5-((1S)-1-(2-(3-(difluoromethyl)-5,5a,6,6a-tetrahydrocyclopropa[g]indazol-1(4H)-yl)acetamido)-2-(3,5-difluorophenyl)ethyl)thiazolo[4,5-b]pyridin-6-yl)-2-fluorobenzamide]
29.3 nM	NC(=O)c1cc(-c2cc3sc(N4CCN(c5ccncc5)CC4)nc3nc2[C@H](Cc2cc(F)cc(F)c2)NC(=O)Cn2nc(C(F)F)c3c2C2CC2CC3)ccc1F (stereo partly shown) [Compound 47]
249 nM	CC1(O)CN(c2nc3nc([C@H](Cc4cc(F)cc(F)c4)NC(=O)Cn4nc(C(F)(F)F)c5c4C(F)(F)[C@@H]4C[C@H]54)c(-c4ccc5n[nH]c(=O)n5c4)cc3s2)C1 [Compound 48, 2-((3bS,4aR)-5,5-difluoro-3-(trifluoromethyl)-3b,4,4a,5-tetrahydro-1H-cyclopropa[3,4]cyclopenta[1,2-c]pyrazol-1-yl)-N—((S)-2-(3,5-difluorophenyl)-1-(2-(3-hydroxy-3-methylazetidin-1-yl)-6-(3-oxo-2,3-dihydro-[1,2,4]triazolo[4,3-a]pyridin-6-yl)thiazolo[4,5-b]pyridin-5-yl)ethyl)acetamide]
31.7 nM	Cc1c(-c2cc3sc(N4CC(C)(O)C4)nc3nc2[C@H](Cc2cc(F)cc(F)c2)NC(=O)Cn2nc(C(F)(F)F)c3c2C(F)(F)[C@@H]2C[C@H]32)ccc2n[nH]c(=O)n12 [Compound 49, 2-((3bS,4aR)-5,5-difluoro-3-(trifluoromethyl)-3b,4,4a,5-tetrahydro-1H-cyclopropa[3,4]cyclopenta[1,2-c]pyrazol-1-yl)-N—((S)-2-(3,5-difluorophenyl)-1-(2-(3-hydroxy-3-methylazetidin-1-yl)-6-(5-methyl-3-oxo-2,3-dihydro-[1,2,4]triazolo[4,3-a]pyridin-6-yl)thiazolo[4,5-b]pyridin-5-yl)ethyl)acetamide]
1.3 nM	Cn1nc(N)c2cccc(-c3cc4sc(N5CC(C)(O)C5)nc4nc3[C@H](Cc3cc(F)cc(F)c3)NC(=O)Cn3nc(C(F)F)c4c3C3CC3CC4)c21 (stereo partly drawn) [Compound 50, N—((S)-1-(6-(3-amino-1-methyl-1H-indazol-7-yl)-2-(3-hydroxy-3-methylazetidin-1-yl)thiazolo[4,5-b]pyridin-5-yl)-2-(3,5-difluorophenyl)ethyl)-2-(3-(difluoromethyl)-5,5a,6,6a-tetrahydrocyclopropa[g]indazol-1(4H)-yl)acetamide]
9.7 nM	Cn1nc(N)c2cccc(-c3cc4sc(NCC(C)(C)O)nc4nc3[C@H](Cc3cc(F)cc(F)c3)NC(=O)Cn3nc(C(F)(F)F)c4c3C(F)(F)[C@@H]3C[C@H]43)c21 [Compound 51, N—((S)-1-(6-(3-amino-1-methyl-1H-indazol-7-yl)-2-((2-hydroxy-2-methylpropyl)amino)thiazolo[4,5-b]pyridin-5-yl)-2-(3,5-difluorophenyl)ethyl)-2-((3bS,4aR)-5,5-difluoro-3-(trifluoromethyl)-3b,4,4a,5-tetrahydro-1H-cyclopropa[3,4]cyclopenta[1,2-c]pyrazol-1-yl)acetamide]
9.6 nM	Cn1nc(NS(C)(=O)=O)c2cccc(-c3cc4sc(NCC(C)(C)O)nc4nc3[C@H](Cc3cc(F)cc(F)c3)NC(=O)Cn3nc(C(F)(F)F)c4c3C(F)(F)[C@@H]3C[C@H]43)c21 [Compound 52, 2-((3bS,4aR)-5,5-difluoro-3-(trifluoromethyl)-3b,4,4a,5-tetrahydro-1H-cyclopropa[3,4]cyclopenta[1,2-c]pyrazol-1-yl)-N—((S)-2-(3,5-difluorophenyl)-1-(2-((2-hydroxy-2-methylpropyl)amino)-6-(1-methyl-3-(methylsulfonamido)-1H-indazol-7-yl)thiazolo[4,5-b]pyridin-5-yl)ethyl)acetamide]
20.4 nM	Cn1nc(NS(C)(=O)=O)c2cccc(-c3cc4sc(N5CC(C)(O)C5)nc4nc3[C@H](Cc3cc(F)cc(F)c3)NC(=O)Cn3nc(C(F)(F)F)c4c3C(F)(F)[C@@H]3C[C@H]43)c21 [Compound 53, 2-((3bS,4aR)-5,5-difluoro-3-(trifluoromethyl)-3b,4,4a,5-tetrahydro-1H-cyclopropa[3,4]cyclopenta[1,2-c]pyrazol-1-yl)-N—((S)-2-(3,5-difluorophenyl)-1-(2-(3-hydroxy-3-methylazetidin-1-yl)-6-(1-methyl-3-(methylsulfonamido)-1H-indazol-7-yl)thiazolo[4,5-b]pyridin-5-yl)ethyl)acetamide]
26.2 nM	Cc1c(-c2cc3sc(NCC(C)(C)O)nc3nc2[C@H](Cc2cc(F)cc(F)c2)NC(=O)Cn2nc(C(F)(F)F)c3c2C(F)(F)[C@@H]2C[C@H]32)ccc2n[nH]c(=O)n12 [Compound 54, 2-((3bS,4aR)-5,5-difluoro-3-(trifluoromethyl)-3b,4,4a,5-tetrahydro-1H-cyclopropa[3,4]cyclopenta[1,2-c]pyrazol-1-yl)-N—((S)-2-(3,5-difluorophenyl)-1-(2-((2-hydroxy-2-methylpropyl)amino)-6-(5-methyl-3-oxo-2,3-dihydro-[1,2,4]triazolo[4,3-a]pyridin-6-yl)thiazolo[4,5-b]pyridin-5-yl)ethyl)acetamide]
13.5 nM	Cn1nc(NS(C)(=O)=O)c2cccc(-c3cc4sc(NCC(C)(C)O)nc4nc3[C@H](Cc3cc(F)cc(F)c3)NC(=O)Cn3nc(C(F)F)c4c3C(F)(F)[C@@H]3C[C@H]43)c21 [Compound 55, 2-((3bS,4aR)-3-(difluoromethyl)-5,5-difluoro-3b,4,4a,5-tetrahydro-1H-cyclopropa[3,4]cyclopenta[1,2-c]pyrazol-1-yl)-N—((S)-2-(3,5-difluorophenyl)-1-(2-((2-hydroxy-2-methylpropyl)amino)-6-(1-methyl-3-(methylsulfonamido)-1H-indazol-7-yl)thiazolo[4,5-b]pyridin-5-yl)ethyl)acetamide]
55.8 nM	Cn1nc(NS(C)(=O)=O)c2cccc(-c3cc4sc(NCC(C)(C)O)nc4nc3[C@H](Cc3cc(F)cc(F)c3)NC(=O)Cn3nc(C(F)F)c4c3C(F)(F)CCC4(F)F)c21 [Compound 56, (S)-2-(3-(difluoromethyl)-4,4,7,7-tetrafluoro-4,5,6,7-tetrahydro-1H-indazol-1-yl)-N-(2-(3,5-difluorophenyl)-1-(2-((2-hydroxy-2-methylpropyl)amino)-6-(1-methyl-3-(methylsulfonamido)-1H-indazol-7-yl)thiazolo[4,5-b]pyridin-5-yl)ethyl)acetamide]
13 nM	Cn1nc(N)c2cccc(-c3cc4sc(NCC(C)(C)O)nc4nc3[C@H](Cc3cc(F)cc(F)c3)NC(=O)Cn3nc(C(F)F)c4c3C(F)(F)[C@@H]3C[C@H]43)c21 [Compound 57, N—((S)-1-(6-(3-amino-1-methyl-1H-indazol-7-yl)-2-((2-hydroxy-2-methylpropyl)amino)thiazolo[4,5-b]pyridin-5-yl)-2-(3,5-difluorophenyl)ethyl)-2-((3bS,4aR)-3-(difluoromethyl)-5,5-difluoro-3b,4,4a,5-tetrahydro-1H-cyclopropa[3,4]cyclopenta[1,2-c]pyrazol-1-yl)acetamide]
14.7 nM	Cn1nc(N)c2cccc(-c3cc4sc(N5CC(C)(O)C5)nc4nc3[C@H](Cc3cc(F)cc(F)c3)NC(=O)Cn3nc(C(F)(F)F)c4c3C(F)(F)[C@@H]3C[C@H]43)c21 [Compound 58, N—((S)-1-(6-(3-amino-1-methyl-1H-indazol-7-yl)-2-(3-hydroxy-3-methylazetidin-1-yl)thiazolo[4,5-b]pyridin-5-yl)-2-(3,5-difluorophenyl)ethyl)-2-((3bS,4aR)-5,5-difluoro-3-(trifluoromethyl)-3b,4,4a,5-tetrahydro-1H-cyclopropa[3,4]cyclopenta[1,2-c]pyrazol-1-yl)acetamide]
